In patent publication US6849442B1, “Biosensor materials and methods” (Cambridge University Technical Services Limited, priority 1997, dated 2005):

Legend:
R. corallina cells = details: for induction of catechol 2,3-dioxygenase activity: R. corallina, meta pathway marker; for ring cleavage dioxygenase pathway induced (meta / ortho): crude enzyme extracts of cells grown on MMRN supplemented with the xenobiotic
Protocol: (§1) “MMRN” is prepared as a multicomponent stock to avoid the production of uncharacterised compounds during autoclaving. A “basic salts” stock is prepared containing 6 g/L Na2HPO4; 3 g/L KH2PO4; 1 g/L NaCl; 4 g/L (NH4)2SO4; adjusted to pH 7.4 and made up to 989 mls with distilled water and autoclaved. A “100×A salts” solution is prepared consisting of 20 g/L MgSO4; 2000 mg/L FeSO4.7H2O; 200 mg/L FeCl3; 200 mg/L MnSO4.H2O is prepared in distilled water and autoclaved. A “1000×B salts” solution consisting of 500 mg/L ZnSO4.7H2O; 200 mg/L CuCl2·2H2O; 200 mg/L Na2B4O7.10H2O; 100 mg/L (NH4)7Mo6O24.4H2O is prepared in distilled water and autoclaved. To prepare 1 litre of MMRN, sterile solutions of 989 mls basic salts, 10 mls 100×A salts, 1 ml 1000×B salts are combined. For solid media, agar is added to 1.4% w/v. Carbon-energy sources are supplemented to 80 μM final concentrations for soluble molecules, or as vapour for insoluble molecules (where their concentration is decided by their individual partition coefficients generally ranging from 3 to 40 μM). Petri plates or liquid cultures are incubated at 28° C. to 30° C. for up to 72 hours to accumulate sufficient biomass for genetic and biochemical testing.

R. corallina [1] = assay: Growth-inducing substrate test on MMRN; assay type: cell-based, Rhodococcus corallina
Excerpt: Mycolic acid-containing bacteria may then be screened for specific hydrocarbon-inducible catabolic pathways using MMRN supplemented with the target xenobiotic pollutant. Strains for which the target molecule is growth inducing may then be isolated and used to as a source of genetic regulatory elements for biosensors or as specific biocatalytic functions. Using this protocol mycolic acid containing bacteria have been and may be rapidly identified with novel and useful catabolic properties. This approach is also useful for identification and isolation of mycolic acid containing bacteria with biocatalytic properties.

R. corallina [2] = assay: Genetic induction of the toluene degradative pathway, substrate supplied as vapour; assay type: cell-based, Rhodococcus corallina; details: level in water
Protocol: as §1

| Molecule | induction of catechol 2,3-dioxygenase activity (R. corallina cells) | ring cleavage dioxygenase pathway induced (meta / ortho) (R. corallina cells) | acts as growth inducing substrate (R. corallina [1]) | level at which genetic induction of the toluene degradative pathway occurs (R. corallina [2]) |
| --- | --- | --- | --- | --- |
| O=C(O)c1ccccc1 [benzoate] | not | exclusively induces the ortho pathway |  |  |
| xylene |  |  | does not act as a growth inducing substrate |  |
| Cc1ccccc1 [toluene] | induced | induced the meta pathway |  | less than 200 ppm |
| Oc1ccccc1 [phenol] |  | exclusively induces the ortho pathway |  |  |
